Measured values reported in publication PMC8744235 (Journal of Biomedical Science, 2022).
Where “and” joins values, the source holds several entries; their conditions need not be identical. Identical values can stand only once. Counter-ions that a name gives are not always drawn. Like-named read-outs stand apart in the source and are kept apart here. Each block holds one compound with its values, some of them ahead of it.

Assays:
SMCT1 = details: inhibition of uptake of SMCT1 substrate nicotinate, mouse colon cell lines; cited from earlier work
colonic mucosa = tested on: colonic mucosa; parameters: method as in PMID 32014250; details: cited from earlier work
[1] = tested on: [^3H]VPA uptake in MT (hSOD1^G93A) NSC-34 cell line; details: for [^3H]VPA uptake (% of control): 10 s, 37 °C
[2] = tested on: [^3H]VPA uptake in WT (hSOD1^WT) NSC-34 cell line; assay: Inhibition of [3H]VPA uptake by substrates/inhibitors/drugs, WT cell line; format: cell-based; details: for [^3H]VPA uptake (% of control): 10 s, 37 °C
[3] = tested on: [^3H]VPA uptake in MT (hSOD1^G93A) NSC-34 cell line; assay: cells
FRTL-5 cells = details: inhibition of GHB uptake by FRTL-5 cells; cited from earlier work
[4] = tested on: NSC-34 mutant-type (NSC34/hSOD1^G93A) cell line; assay: [3H]VPA cellular uptake and kinetic parameters, MT ALS cell line; format: in vitro ADME
Description: (§1) To maintain the sodium-free environment in the ECF buffer, NaCl and NaHCO3 was replaced with […] and N-methyl-D-glucamine (NMG), respectively. […] Similarly, to observe the effect of pH, the ECF buffer was adjusted to pH 6.0-7.4 using HCl or NaOH following a previously described experimental procedure. […] For the Eadie-Hofstee plot, the saturable components were plotted by subtracting the non-saturable uptake from the total uptake rate.

[5] = tested on: NSC-34 wild-type (NSC-34/hSOD1^WT) cell line; assay: [3H]VPA cellular uptake and kinetic parameters, WT cell line; format: in vitro ADME
Description: as §1

[6] = in the body; cited from earlier work
NSC-34 WT cell line = assay: Cell viability (MTT) assay, glutamate- and H2O2-induced neurotoxicity, WT; details: 24 h
Description: (§2) Then, an MTT [3‐(4,5‐[…]‐2‐yl)‐2,5‐diphenyltetrazoliumbromide] solution (5 mg/mL) was added and the cells were stored in the dark at 37 °C until the appearance of a purple precipitate (formazan). Then, DMSO was added and the cells were left for 15 min; afterwards, the absorbance was measured using an Infinite F200 PRO microplate reader (Tecan Trading AG, Männedorf, Switzerland) at […]. Images were captured using an EVOS XL Core Cell Imaging System (Life technologies, Thermo Fisher Scientific Korea Co., Ltd.).

NSC-34 MT cell line = assay: Cell viability (MTT) assay, glutamate- and H2O2-induced neurotoxicity, MT; details: 24 h
Description: as §2

[7] = NSC-34, pH 7.4, read-out: IC50 for [^3H]VPA uptake
[8] = NSC-34, pH 6, read-out: IC50 for [^3H]VPA uptake
[9] = 5–30 s, pH 6.0–7.4, sodium-free (NMG) buffer
[10] = high-affinity site, unlabeled VPA 0–10 mM, 10 s, pH 7.4, 37 °C
[11] = low-affinity site, 10 s, pH 7.4
[12] = VPA 2 mM added to glutamate (2 mM) and H2O2 (300 µM)

Structure (SMILES): Nc1ccc(O)c(C(=O)O)c1 [5-aminosalicylic acid]
Ki/IC50 (SMCT1): 2.8 mM
Km (colonic mucosa): 2.4 mM

Structure (SMILES): CC(=O)O [Acetic acid, acetic acid]
[^3H]VPA uptake (% of control) ([1]; compound 1 mM, pH 6.0): 40.3 ± 5.0 % of control
[^3H]VPA uptake (% of control) ([1]; compound 10 mM, pH 6.0): 15.4 ± 1.4 % of control
[^3H]VPA uptake (% of control) ([2]; compound 1 mM, pH 6.0): 54.9 ± 6.7 % of control
[^3H]VPA uptake (% of control) ([2]; compound 10 mM, pH 6.0): 24.4 ± 3.0 % of control

Structure (SMILES): N#CC(=Cc1ccc(O)cc1)C(=O)O [CHC, α-cyano-4-hydroxycinnamate]
[^3H]VPA uptake (% of control) ([1]; compound 10 mM, pH 6.0): 74.6 ± 7.1 % of control
[^3H]VPA uptake (% of control) ([2]; compound 10 mM, pH 6.0): 67.7 ± 9.0 % of control

Structure (SMILES): O=C(O)CC(O)(CC(=O)O)C(=O)O [Citric acid, citric acid]
[^3H]VPA uptake (% of control) ([1]; compound 10 mM, pH 6.0): 125 ± 13 % of control
[^3H]VPA uptake (% of control) ([2]; compound 10 mM, pH 6.0): 113 ± 3 % of control

Structure (SMILES): O=S(=O)(O)c1cc(N=C=S)ccc1C=Cc1ccc(N=C=S)cc1S(=O)(=O)O [DIDS, 4,4′-diisothiocyano-2,2′-stilbenedisulfonic acid]
depletion in VPA transport ([1]; 1 mM): approximately 40%
[^3H]VPA uptake (% of control) ([1]; compound 1 mM, pH 6.0): 58.8 ± 4.9 % of control
depletion in VPA transport ([2]; 1 mM): approximately 40%
[^3H]VPA uptake (% of control) ([2]; compound 1 mM, pH 6.0): 54.8 ± 4.3 % of control

IC50 [3, 7]: 28.9 mM
Structure (SMILES): CC1=NN(c2ccccc2)C(=O)C1 [Edaravone, edaravone]
[^3H]VPA uptake (% of control) ([1]; compound 1 mM, pH 6.0): 81.0 ± 5.4 % of control
[^3H]VPA uptake (% of control) ([1]; compound 10 mM, pH 6.0): 68.6 ± 6.3 % of control
[^3H]VPA uptake (% of control) ([2]; compound 1 mM, pH 6.0): 80.3 ± 6.0 % of control
[^3H]VPA uptake (% of control) ([2]; compound 10 mM, pH 6.0): 67.3 ± 7.6 % of control

Structure (SMILES): C[C@]12CC[C@@H]3c4ccc(OS(=O)(=O)O)cc4CC[C@H]3[C@@H]1CCC2=O [Estrone − 3 sulfate, estrone 3-sulfate]
[^3H]VPA uptake (% of control) ([1]; compound 10 mM, pH 6.0): 58.2 ± 8.5 % of control
[^3H]VPA uptake (% of control) ([2]; compound 10 mM, pH 6.0): 60.6 ± 8.4 % of control

Structure (SMILES): NS(=O)(=O)c1cc(C(=O)O)c(NCc2ccco2)cc1Cl [Furosemide, furosemide]
[^3H]VPA uptake (% of control) ([1]; compound 1 mM, pH 6.0): 61.7 ± 2.2 % of control
[^3H]VPA uptake (% of control) ([1]; compound 5 mM, acidic pH): 82.3 ± 7.5 % of control
[^3H]VPA uptake (% of control) ([2]; compound 1 mM, pH 6.0): 61.7 ± 6.3 % of control
[^3H]VPA uptake (% of control) ([2]; compound 5 mM, acidic pH): 77.5 ± 4.9 % of control

IC50 [3, 8]: 6.65 mM
IC50 [3, 7]: 36 mM
Structure (SMILES): CC(C)Cc1ccc(C(C)C(=O)O)cc1 (centres unmarked) [Ibuprofen]
[^3H]VPA uptake (% of control) ([1]; compound 1 mM, pH 6.0): 61.9 ± 7.5 % of control
[^3H]VPA uptake (% of control) ([1]; compound 10 mM, pH 6.0): 33.5 ± 1.0 % of control
IC50 (FRTL-5 cells): in the micromolar range
[^3H]VPA uptake (% of control) ([2]; compound 1 mM, pH 6.0): 64.3 ± 3.6 % of control
[^3H]VPA uptake (% of control) ([2]; compound 10 mM, pH 6.0): 22.3 ± 1.5 % of control

Structure (SMILES): C[C@H](O)C(=O)O [L-lactate]
IC50 (FRTL-5 cells): in the micromolar range

Structure (SMILES): Nc1ccc(C(=O)NCC(=O)O)cc1 [PAH, para-aminohippuric acid]
[^3H]VPA uptake (% of control) ([1]; compound 1 mM, pH 6.0): 58.7 ± 2.9 % of control
[^3H]VPA uptake (% of control) ([1]; compound 10 mM, pH 6.0): 63.5 ± 5.5 % of control
[^3H]VPA uptake (% of control) ([2]; compound 1 mM, pH 6.0): 71.0 ± 5.5 % of control
[^3H]VPA uptake (% of control) ([2]; compound 10 mM, pH 6.0): 75.8 ± 2.3 % of control

Structure (SMILES): O=C(O)CCCc1ccccc1 [PBA, 4-phenylbutyric acid]
[^3H]VPA uptake (% of control) ([1]; compound 10 mM, pH 6.0): 56.6 ± 3.0 % of control
[^3H]VPA uptake (% of control) ([2]; compound 10 mM, pH 6.0): 43.1 ± 2.2 % of control

IC50 [3, 8]: 7.36 mM
Structure (SMILES): O=C(O)c1ccccc1O [Salicylic acid]
[^3H]VPA uptake (% of control) ([1]; compound 1 mM, pH 6.0): 78.8 ± 8.6 % of control
[^3H]VPA uptake (% of control) ([1]; compound 10 mM, pH 6.0): 31.9 ± 1.6 % of control
[^3H]VPA uptake (% of control) ([2]; compound 1 mM, pH 6.0): 64.9 ± 2.0 % of control
[^3H]VPA uptake (% of control) ([2]; compound 10 mM, pH 6.0): 17.9 ± 1.5 % of control

dependence of [^3H]VPA uptake [4, 9]: time, pH, and sodium dependent
dependence of [^3H]VPA uptake [5, 9]: time, pH, and sodium dependent
Structure (SMILES): CCCC(CCC)C(=O)O [VPA, Valproic acid]
[^3H]VPA uptake (% of control) ([1]; compound 1 mM, pH 6.0): 78.4 ± 1.6 % of control
[^3H]VPA uptake (% of control) ([1]; compound 10 mM, pH 6.0): 37.4 ± 4.2 % of control
Vmax1 ([4]; high-affinity site, pH 7.4): 0.0232 ± 0.0007 nmol/mg protein/10 s
Km1 [4, 10]: 19.1 ± 0.7 µM
Km2 [4, 11]: 1.14 ± 0.14 mM and 1.144 ± 0.143 mM
Vmax2 ([4]; low-affinity site, pH 7.4): 0.231 ± 0.015 nmol/mg protein/10 s
Vmax1 ([5]; high-affinity site, pH 7.4): 0.0083 ± 0.0044 nmol/mg protein/10 s
Km1 [5, 10]: 37.8 ± 3.0 µM
Km2 [5, 11]: 4.59 ± 0.62 mM and 4.588 ± 0.620 mM
Vmax2 ([5]; low-affinity site, pH 7.4): 1.86 ± 0.24 nmol/mg protein/10 s and 1.864 ± 0.244 nmol/mg protein/10 s
half-life [6]: 9 to 16 h
neuroprotective effect on cell viability (MTT) (NSC-34 WT cell line; [12]): restored the viability
[^3H]VPA uptake (% of control) ([2]; compound 1 mM, pH 6.0): 78.3 ± 4.5 % of control
[^3H]VPA uptake (% of control) ([2]; compound 10 mM, pH 6.0): 35.9 ± 5.2 % of control
neuroprotective effect on cell viability (MTT) (NSC-34 MT cell line; [12]): restored the viability

Structure (SMILES): N[C@@H](CCC(=O)O)C(=O)O [glutamate]
effect of neurotoxic stimulus on cell viability (MTT) (NSC-34 WT cell line; glutamate 2 mM or H2O2 300 µM): significantly decreased the viability
effect of neurotoxic stimulus on cell viability (MTT) (NSC-34 MT cell line; glutamate 2 mM or H2O2 300 µM): significantly decreased the viability

Structure (SMILES): CC(C(=O)O)c1cccc(C(=O)c2ccccc2)c1 (centres unmarked) [ketoprofen]
IC50 (FRTL-5 cells): in the micromolar range

Structure (SMILES): CCCN(CCC)S(=O)(=O)c1ccc(C(=O)O)cc1 [probenecid]
IC50 (FRTL-5 cells): in the micromolar range
